The text below walks through data of patent publication US7510729B2, “Combination of polyvinyl acetate with water-insoluble, acid-insoluble, or alkali-insoluble polymers used for the production of film coatings with highly controlled release and high stability” (BASF Aktiengesellschaft, priority 2002, dated 2009).

The data set is described as follows: pH-dependent solubility of the active ingredient. To be noted: acidic range.

For the compound `CC(=O)Oc1ccccc1C(=O)O` [Acetylsalicylic acid, acetylsalicylic acid], the Solubility is given as 0.45%.
